Results reported in ChEMBL document CHEMBL6114971, “Design, synthesis and biological evaluation of benzo[b]thiophene analogues as novel ferroptosis inhibitor that inhibit fibrosarcoma cell proliferation” (Bioorg Med Chem, 2025).
pIC50: −log10 of the molar value.

Key:
HT-1080 [1] = test: Reduction in GPX4 mRNA level in human HT-1080 cells measured after 24 hrs by qRT-PCR analysis; format: functional, cell-based; conditions: dose 0.5-4 µM
HT-1080 [2] = test: Induction of ferroptosis in human HT-1080 cells assessed as reduction in GSH level measured after 24 hrs; format: functional, cell-based; conditions: dose 0.5-4 µM
[3] = Selectivity index, ratio of IC50 for HUVEC to IC50 for human HT-1080; format: toxicity; conditions: HUVEC versus HT-1080 cells, read-out: Ratio IC50
HT-1080 [4] = test: Cell cycle arrest in human HT-1080 cells assessed as accumulation of cells at G2/M-phase at 0.5 uM measured after 24 hrs by propidium iodide staining based flow cytometry (reference value: 27%); format: functional
HT-1080 [5] = test: Antiproliferative activity against human HT-1080 cells measured after 72 hrs in presence of ferroptosis inhibitor Fer-1 by MTT assay; format: functional, cell-based; conditions: HT-1080, 72 h
HT-1080 [6] = test: Cell cycle arrest in human HT-1080 cells assessed as accumulation of cells at G1-phase at 1 uM measured after 24 hrs by propidium iodide staining based flow cytometry (reference value: 51.3%); format: functional
HT-1080 [7] = test: Cell cycle arrest in human HT-1080 cells assessed as accumulation of cells at G2/M-phase at 2 uM measured after 24 hrs by propidium iodide staining based flow cytometry (reference value: 27%); format: functional
HT-1080 [8] = test: Induction of ROS generation in human HT-1080 cells assessed as intracellular ROS level at 2 uM measured after 24 hrs by DCFH-DA probe based flow cytometry (reference value: 33%); format: functional
HT-1080 [9] = test: Cell cycle arrest in human HT-1080 cells assessed as accumulation of cells at G2/M-phase at 1 uM measured after 24 hrs by propidium iodide staining based flow cytometry (reference value: 27%); format: functional
HT-1080 [10] = test: Antiproliferative activity against human HT-1080 cells measured after 72 hrs by MTT assay; format: functional, cell-based; conditions: HT-1080, 72 h
[11] = Cytotoxicity against human GES1 cells measured after 72 hrs by MTT assay; format: toxicity, cell-based
HT-1080 [12] = test: Cell cycle arrest in human HT-1080 cells assessed as accumulation of cells at S-phase at 0.5 uM measured after 24 hrs by propidium iodide staining based flow cytometry (reference value: 21.1%); format: functional
HT-1080 [13] = test: Induction of ferroptosis in human HT-1080 cells assessed as increase in MDA level measured after 24 hrs; format: functional, cell-based; conditions: dose 0.5-4 µM
HT-1080 [14] = test: Cell cycle arrest in human HT-1080 cells assessed as accumulation of cells at S-phase at 2 uM measured after 24 hrs by propidium iodide staining based flow cytometry (reference value: 21.1%); format: functional
HT-1080 [15] = test: Cell cycle arrest in human HT-1080 cells assessed as accumulation of cells at S-phase at 1 uM measured after 24 hrs by propidium iodide staining based flow cytometry (reference value: 21.1%); format: functional
[16] = biological target: T1, Phospholipid hydroperoxide glutathione peroxidase GPX4 (Homo sapiens) (UniProt P36969); test: Inhibition of GPX4 activity in human HT-1080 cells assessed as down regulation of GPX4 level measured after 24 hrs by Western blotting analysis; format: cell-based; conditions: dose 0.25-4 µM
T1 sequence (whole entry): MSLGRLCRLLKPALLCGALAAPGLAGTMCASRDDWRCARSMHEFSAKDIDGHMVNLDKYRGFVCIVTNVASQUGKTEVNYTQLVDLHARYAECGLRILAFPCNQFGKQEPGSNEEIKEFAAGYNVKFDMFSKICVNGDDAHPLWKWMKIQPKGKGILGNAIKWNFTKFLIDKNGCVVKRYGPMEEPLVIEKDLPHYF

4T1 = test: Antiproliferative activity against mouse 4T1 cells measured after 72 hrs by MTT assay; format: functional, cell-based; conditions: 4T1, 72 h
[17] = Selectivity index, ratio of IC50 for human GES1 cells to IC50 for human HT-1080; format: toxicity; conditions: GES1 cells versus HT-1080 cells, read-out: Ratio IC50
[18] = Cytotoxicity against HUVEC measured after 72 hrs by MTT assay; format: toxicity, cell-based; conditions: human
HT-1080 [19] = test: Induction of ROS generation in human HT-1080 cells assessed as intracellular ROS level at 2 uM measured after 24 hrs in presence of ferroptosis inhibitor Fer-1 by DCFH-DA probe based flow cytometry (reference value: 33%); format: functional
HT-1080 [20] = test: Induction of ROS generation in human HT-1080 cells assessed as intracellular ROS level at 1 uM measured after 24 hrs by DCFH-DA probe based flow cytometry (reference value: 33%); format: functional
[21] = Selectivity ratio of IC50 for antiproliferative activity against human HT-1080 cells in presence of ferroptosis inhibitor Fer-1 to IC50 for antiproliferative activity against human HT-1080 cells; format: functional
HT-1080 [22] = test: Induction of ROS generation in human HT-1080 cells assessed as increase in intracellular ROS level measured after 24 hrs by DCFH-DA probe based flow cytometry; format: functional, cell-based; conditions: dose 0.5-2 µM
HT-1080 [23] = test: Induction of ROS generation in human HT-1080 cells assessed as intracellular ROS level at 0.5 uM measured after 24 hrs by DCFH-DA probe based flow cytometry (reference value: 33%); format: functional
HT-1080 [24] = test: Cell cycle arrest in human HT-1080 cells assessed as accumulation of cells at G1-phase at 0.5 uM measured after 24 hrs by propidium iodide staining based flow cytometry (reference value: 51.3%); format: functional
[25] = biological target: T1, Phospholipid hydroperoxide glutathione peroxidase GPX4 (Homo sapiens); test: Inhibition of GPX4 activity in human HT-1080 cells assessed as down regulation of GPX4 level at 2 uM measured after 24 hrs by Western blotting analysis; format: cell-based
MGC-803 = test: Antiproliferative activity against human MGC-803 cells measured after 72 hrs by MTT assay; format: functional, cell-based; conditions: MGC-803, 72 h
A549 = test: Antiproliferative activity against human A549 cells measured after 72 hrs by MTT assay; format: functional, cell-based; conditions: A549, 72 h
HT-1080 [26] = test: Cell cycle arrest in human HT-1080 cells assessed as accumulation of cells at G1-phase at 2 uM measured after 24 hrs by propidium iodide staining based flow cytometry (reference value: 51.3%); format: functional
HT-1080 [27] = test: Induction of ferroptosis in human HT-1080 cells assessed as increase in intracellular Fe2+ level measured after 24 hrs; format: functional, cell-based; conditions: dose 0.5-4 µM

- pIC50 (HT-1080 [5]): 5.52
- pIC50 (HT-1080 [10]): 6.03
- inhibition [16]: Dose-dependent-effect
- pIC50 (4T1): 4.79
- pIC50 (MGC-803): 5.35
- pIC50 (A549): 4.77
Structure (SMILES): COc1cc(N(Cc2csc3ccccc23)C(=O)CCl)cc(OC)c1OC
- Activity (HT-1080 [1]): Dose-dependent-effect
- Activity (HT-1080 [2]): Dose-dependent-effect
- selectivity ratio [3]: 27.7
- Activity (HT-1080 [4]): 23.1%
- Activity (HT-1080 [6]): 38.8%
- Activity (HT-1080 [7]): 23.9%
- Activity (HT-1080 [8]): 88.5%
- Activity (HT-1080 [9]): 23.8%
- IC50 at 72 h [11]: 103 µM
- Activity (HT-1080 [12]): 28.5%
- Activity (HT-1080 [13]): Dose-dependent-effect
- Activity (HT-1080 [14]): 40.7%
- Activity (HT-1080 [15]): 37%
- selectivity ratio [17]: 109
- IC50 at 72 h [18]: 26.1 µM
- Activity (HT-1080 [19]): 31.2%
- Activity (HT-1080 [20]): 64.2%
- Ratio IC50 [21]: 3.21
- Activity (HT-1080 [22]): Dose-dependent-effect
- Activity (HT-1080 [23]): 33%
- Activity (HT-1080 [24]): 48%
- inhibition [25]: Active; Significant Down Regulation Observed
- Activity (HT-1080 [26]): 35.5%
- Activity (HT-1080 [27]): Dose-dependent-effect
